The values below are quoted from earlier work in patent US6979682B2, “Platelet-activating factor antagonist inhibition of angiogenesis and tumor growth induced by basic fibroblast” (Board of Supervisors of Louisiana State University and …, priority 2001, dated 2005).

Series [1] concerns PAF binding sites (microsomal intracellular membranes; synaptosomal plasma membrane). To be noted: Marcheselli et al., 1990; cited from earlier work.
Series [2] concerns angiogenesis stimulated by HGF, TNF-α or bFGF. As to conditions: cited from earlier work.

“Also recorded” adds a separate entry of the source.

Consider `CCCCCCCCCCCCCCCCCCNC(=O)OCC(COP(=O)([O-])OCC[n+]1ccsc1)OC` (stereo not shown) [CV-3988, reference compound], for which the “binding to the intracellular PAF binding sites” value in series [1] was “known to bind to the intracellular PAF binding sites”.

As to `Cc1nnc2n1-c1sc3c(c1C(c1ccccc1Cl)=NC2)CC(C(=O)N1CCOCC1)C3` (stereo not shown) [WEB 2170], the “angiogenesis stimulated by bFGF” value in series [2] (Camussi et al., 1997, Montrucchio et al.) is listed as “did not inhibit; also recorded: not inhibited”. The “angiogenesis stimulated by HGF” value in series [2] (Camussi et al., 1997) was “inhibited”. Besides, in series [2] (Montrucchio et al.), the “angiogenesis stimulated by TNF-α” value was “inhibited”.
